Data taken from ChEMBL document CHEMBL1128134, “Characterization of a continuous fluorogenic assay for calpain I. Kinetic evaluation of peptide aldehydes, halomethyl ketones and (acyloxy)methyl ketones as inhibitors of the enzyme” (Bioorg Med Chem Lett, 1995).
Square brackets hold non-standard residues; d marks the D form. Peptide text beside a SMILES is read from it. * marks the point of attachment. ξ: configuration not given here. 1Nal = N[C@@H](Cc1cccc2ccccc12)C(=O)O; hPhe = N[C@@H](CCc1ccccc1)C(=O)O; tBuAla = CC(C)(C)C[C@H](N)C(=O)O; Ile(3ξ) = CCC(C)[C@H](N)C(=O)O; ξPhg = NC(C(=O)O)c1ccccc1; ξTle = CC(C)(C)C(N)C(=O)O; Cbz = O=C(OCc1ccccc1)*; ξL = CC(C)CC(N)C(=O)O; CH2Cl = ClC*

Columns and labels:
[1] = molecular target: Cathepsin B (Homo sapiens) (UniProt P07858); experiment: Apparent second order rate constant for inhibition of cathepsin B by fluorogenic assay.
Calpain 1 (Homo sapiens) = Calpain 1 (Homo sapiens) (UniProt P04632+P07384); experiment: Apparent second order rate constant for inhibition of calpain-1 by fluorogenic assay.; assay type: protein-complex assay
[2] = molecular target: Procathepsin L (Homo sapiens) (UniProt P07711); experiment: Inhibition of cathepsin L (fluorogenic assay), apparent second order rate constant
Calpain 1 = Calpain 1 (Homo sapiens, UniProt P07384); experiment: Inhibition of Calpain 1 by [3H]acetyl-casein assay; assay type: protein-complex assay
Sequence of Calpain 1 (P04632 whole entry): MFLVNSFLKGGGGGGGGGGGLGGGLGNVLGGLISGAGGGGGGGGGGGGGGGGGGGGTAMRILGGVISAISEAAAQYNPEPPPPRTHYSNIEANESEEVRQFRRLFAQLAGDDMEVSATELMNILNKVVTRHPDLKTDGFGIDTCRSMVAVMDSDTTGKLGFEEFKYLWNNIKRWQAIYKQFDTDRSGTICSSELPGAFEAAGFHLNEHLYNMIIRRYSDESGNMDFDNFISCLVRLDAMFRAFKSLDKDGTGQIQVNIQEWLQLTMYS
Sequence of Calpain 1 (P07384 whole entry): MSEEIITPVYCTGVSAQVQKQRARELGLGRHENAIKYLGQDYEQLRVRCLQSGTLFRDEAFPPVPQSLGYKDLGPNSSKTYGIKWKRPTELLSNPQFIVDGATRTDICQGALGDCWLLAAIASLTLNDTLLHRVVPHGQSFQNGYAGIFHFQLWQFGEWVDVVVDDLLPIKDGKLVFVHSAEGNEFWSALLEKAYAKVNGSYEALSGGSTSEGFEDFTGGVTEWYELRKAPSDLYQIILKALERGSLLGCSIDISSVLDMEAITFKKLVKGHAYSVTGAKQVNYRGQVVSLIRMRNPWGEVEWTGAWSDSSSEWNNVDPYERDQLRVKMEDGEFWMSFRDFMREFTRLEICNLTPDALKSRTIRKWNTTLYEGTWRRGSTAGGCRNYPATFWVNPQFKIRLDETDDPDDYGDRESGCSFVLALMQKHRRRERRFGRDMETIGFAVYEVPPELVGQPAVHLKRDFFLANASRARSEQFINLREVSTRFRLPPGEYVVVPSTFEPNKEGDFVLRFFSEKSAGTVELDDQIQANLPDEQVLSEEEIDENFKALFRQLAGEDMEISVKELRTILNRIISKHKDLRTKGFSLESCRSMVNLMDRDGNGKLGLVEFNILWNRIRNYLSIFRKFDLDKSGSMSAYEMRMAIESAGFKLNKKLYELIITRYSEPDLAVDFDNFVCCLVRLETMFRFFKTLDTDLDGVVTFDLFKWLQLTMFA

Sequence of Procathepsin L (Homo sapiens) (P07711 114-333 limits assumed): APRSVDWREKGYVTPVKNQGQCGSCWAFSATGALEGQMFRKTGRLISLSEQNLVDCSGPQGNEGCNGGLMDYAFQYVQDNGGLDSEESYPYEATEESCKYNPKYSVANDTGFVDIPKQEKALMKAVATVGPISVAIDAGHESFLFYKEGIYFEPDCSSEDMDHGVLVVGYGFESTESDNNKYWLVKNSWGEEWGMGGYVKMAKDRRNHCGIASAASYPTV

| k obs / 1 [1] [M⁻¹ s⁻¹] | k obs / 1 (Calpain 1 (Homo sapiens)) [M⁻¹ s⁻¹] | k obs / 1 [2] [M⁻¹ s⁻¹] | IC50 (Calpain 1) [nM] | Compound |
| --- | --- | --- | --- | --- |
| 100 | 1000 | 100 | – | CC(C)CC(NC(=O)[C@@H](Cc1ccccc1)NC(=O)OCc1ccccc1)C(=O)NC(Cc1ccccc1)C(=O)COC(=O)c1c(F)cccc1F (stereo partly specified) |
| – | 17000 | – | – | CC(C)CC(NC(=O)OCc1ccccc1)C(=O)NC(Cc1ccccc1)C(=O)COC(=O)c1c(Cl)ccc(S(=O)(=O)N2CCOCC2)c1Cl (stereo unspecified) |
| 2600 | 54000 | 50000 | – | CC(C)CC(NC(=O)OCc1ccccc1)C(=O)NC(Cc1ccc(O)cc1)C(=O)COC(=O)c1c(Cl)ccc(S(=O)(=O)CCN2CCOCC2)c1Cl (stereo unspecified) |
| – | 11000 | – | – | CC(C)C(NC(=O)OCc1ccccc1)C(=O)NC(Cc1ccccc1)C(=O)COC(=O)c1c(Cl)cccc1Cl (stereo unspecified) |
| – | 14000 | – | – | CC(C)CC(NC(=O)OCc1ccccc1)C(=O)NC(Cc1ccc(O)cc1)C(=O)COC(=O)c1c(Cl)ccc(S(=O)(=O)N2CCOCC2)c1Cl (stereo unspecified) |
| – | 500 | – | – | CC(=O)Nc1cccc(Cl)c1C(=O)OCC(=O)C(C)NC(=O)C(CC(C)C)NC(=O)OCc1ccccc1 (stereo unspecified) |
| 2200 | 19000 | 1600 | – | CC(C)C[C@H](NC(=O)[C@H](C)NC(=O)OCc1ccccc1)C(=O)N[C@@H](Cc1ccccc1)C(=O)COC(=O)c1c(F)cccc1F |
| 50 | < 500 | – | – | CC(C)C[C@H](NC(=O)OCc1ccccc1)C(=O)N[C@@H](Cc1ccc(O)cc1)C(=O)CBr |
| 2000 | 1500 | – | – | CC(C)CC(NC(=O)OCc1ccccc1)C(=O)NC(Cc1ccc(O)cc1)C(=O)CCl (stereo not drawn) (Cbz-Leu-Tyr-CH2Cl; configuration not given here) |
| – | 8000 | – | – | CC(C)CC(NC(=O)OC(C)(C)C)C(=O)NC(Cc1ccccc1)C(=O)COC(=O)c1c(F)cccc1F (stereo unspecified) |
| – | 7000 | – | – | CC(C)CC(NC(=O)OCc1ccccc1)C(=O)NC(Cc1ccc(O)cc1)C(=O)COC(=O)c1c(F)cccc1F (stereo unspecified) |
| – | 700 | – | – | Cc1cccc(C)c1C(=O)OCC(=O)C(Cc1ccccc1)NC(=O)C(NC(=O)OCc1ccccc1)C(C)C (stereo unspecified) |
| 11000 | 26500 | – | – | CC(C)C[C@H](NC(=O)[C@@H]1CCCN1C(=O)OCc1ccccc1)C(=O)N[C@@H](Cc1ccccc1)C(=O)COC(=O)c1c(F)cccc1F |
| 1600 | 28000 | 33000 | – | CC(C)CC(NC(=O)OCc1ccccc1)C(=O)NC(Cc1ccc(O)cc1)C(=O)COC(=O)c1c(Cl)cccc1Cl (stereo unspecified) |
| – | 9000 | – | – | CC(C)CC(NC(=O)OCc1ccccc1)C(=O)NC(Cc1ccccc1)C(=O)COC(=O)c1c(F)cccc1F (stereo unspecified) |
| 2500 | 5500 | – | – | CC(C)CC(NC(=O)OCc1ccccc1)C(=O)NC(Cc1ccccc1)C(=O)CCl (stereo not drawn) (Cbz-Leu-Phe-CH2Cl; configuration not given here) |
| – | < 500 | – | – | CC(C)CC(C(=O)NC(Cc1ccccc1)C(=O)COC(=O)c1c(F)cccc1F)N(C)C(=O)OCc1ccccc1 (stereo unspecified) |
| 80 | 30000 | 38000 | – | CC(C)CC(NC(=O)OCc1ccccc1)C(=O)NC(Cc1ccccc1)C(=O)COC(=O)c1c(Cl)ccc(S(=O)(=O)CCN2CCOCC2)c1Cl (stereo unspecified) |
| 100 | 31000 | 300 | – | CC(C)CC(NC(=O)[C@@H](C)NC(=O)OCc1ccccc1)C(=O)NC(Cc1ccccc1)C(=O)COC(=O)c1c(F)cccc1F (stereo partly specified) |
| 250 | 11000 | 2700 | – | CC(C)CC(NC(=O)OCc1ccccc1)C(=O)NC(Cc1ccccc1)C(=O)COC(=O)c1c(Cl)cccc1Cl (stereo unspecified) |
| – | 1500 | – | – | Cc1ccc(S(=O)(=O)NC(CC(C)C)C(=O)NC(Cc2ccccc2)C(=O)COC(=O)c2c(F)cccc2F)cc1 (stereo unspecified) |
| 800 | 15000 | 14000 | – | CC(C)CC(NC(=O)CNC(=O)OCc1ccccc1)C(=O)NC(Cc1ccccc1)C(=O)COC(=O)c1c(F)cccc1F (stereo unspecified) |
| 700 | 1400 | 400 | – | COC(=O)N[C@H](C)C(=O)NC(CC(C)C)C(=O)NC(Cc1ccccc1)C(=O)COC(=O)c1c(F)cccc1F (stereo partly specified) |

Second part, the compound before the results:

| Compound | k obs / 1 [1] [M⁻¹ s⁻¹] | k obs / 1 (Calpain 1 (Homo sapiens)) [M⁻¹ s⁻¹] | k obs / 1 [2] [M⁻¹ s⁻¹] | IC50 (Calpain 1) [nM] |
| --- | --- | --- | --- | --- |
| COC(=O)N[C@H](C)C(=O)NC(CC(C)C)C(=O)NC(Cc1ccccc1)C(=O)COC(=O)c1c(Cl)ccc(OCCN2CCOCC2)c1Cl (stereo partly specified) | 4700 | 43000 | 90000 | – |
| O=C[C@H](Cc1ccccc1)NC(=O)[C@H](Cc1ccccc1)NC(=O)OCc1ccccc1 (Cbz-Phe-Phe-aldehyde) | – | – | – | 400 |
| O=C(CNC(=O)OCc1ccccc1)NC(Cc1ccccc1)C(=O)COC(=O)c1c(Cl)cccc1Cl (stereo unspecified) | – | 700 | – | – |
| O=C(CNC(=O)OCc1ccccc1)NC(Cc1ccccc1)C(=O)COC(=O)c1c(Cl)ccc(S(=O)(=O)NCC(=O)OCc2ccccc2)c1Cl (stereo unspecified) | – | 900 | – | – |
| C[C@H](NC(=O)OCc1ccccc1)C(=O)N[C@H](C=O)Cc1ccccc1 | – | – | – | 140 |
| CC(C)CC(NC(=O)OCc1ccccc1)C(=O)NCC(=O)COC(=O)c1c(Cl)cccc1Cl (stereo unspecified) | – | 6000 | – | – |
| CC(C)CC(NC(=O)OCc1ccccc1)C(=O)NC(C)C(=O)CCl (stereo unspecified) | 43000 | 6000 | – | – |
| O=C[C@H](Cc1ccccc1)NC(=O)C(NC(=O)OCc1ccccc1)c1ccccc1 (stereo partly specified) (Cbz-[ξPhg]-Phe-aldehyde) | – | – | – | 100 |
| CC(=O)Nc1cccc(Cl)c1C(=O)OCC(=O)CNC(=O)C(CC(C)C)NC(=O)OCc1ccccc1 (stereo unspecified) | – | 600 | – | – |
| CC(NC(=O)C(Cc1ccccc1)NC(=O)OCc1ccccc1)C(=O)COC(=O)c1c(Cl)cccc1Cl (stereo unspecified) | 360000 | < 500 | 104000 | – |
| O=C[C@H](Cc1ccccc1)NC(=O)[C@H](CCc1ccccc1)NC(=O)OCc1ccccc1 (Cbz-[hPhe]-Phe-aldehyde) | – | – | – | 270 |
| CC(C)C[C@H](NC(=O)OCc1ccccc1)C(=O)N[C@H](C=O)Cc1ccc(O)cc1 (Cbz-Leu-Tyr-aldehyde) | – | – | – | 20 |
| CC(C)[C@H](NC(=O)OCc1ccccc1)C(=O)N[C@H](C=O)Cc1cccc2ccccc12 (Cbz-Val-[1Nal]-aldehyde) | – | – | – | 100 |
| CC(C)C(NC(=O)OCc1ccccc1)C(=O)NCC(=O)COC(=O)c1c(Cl)cccc1Cl (stereo unspecified) | – | 800 | – | – |
| CC(C)CC(NC(=O)OCc1ccccc1)C(=O)NC(C)C(=O)COC(=O)c1c(Cl)ccc(S(=O)(=O)N2CCOCC2)c1Cl (stereo unspecified) | – | 14000 | – | – |
| CC(C)CC(NC(=O)OCc1ccccc1)C(=O)NCC(=O)CCl (stereo unspecified) (Cbz-[ξL]-Gly-CH2Cl) | 170000 | 31000 | 500000 | – |
| CC(NC(=O)C(Cc1ccccc1)NC(=O)OCc1ccccc1)C(=O)CCl (stereo unspecified) | 220000 | < 500 | – | – |
| NC(=O)CC(NC(=O)OCc1ccccc1)C(=O)NC(Cc1ccccc1)C(=O)CCl (stereo not drawn) (Cbz-Asn-Phe-CH2Cl; configuration not given here) | 3000 | 600 | – | – |
| CC(C)[C@H](NC(=O)OCc1ccccc1)C(=O)N[C@H](C=O)Cc1ccc(O)cc1 (Cbz-Val-Tyr-aldehyde) | – | – | – | 25 |
| CC(C)C(NC(=O)OCc1ccccc1)C(=O)NC(Cc1ccccc1)C(=O)COC(=O)c1c(Cl)ccc(S(=O)(=O)CCN2CCOCC2)c1Cl (stereo unspecified) | 5500 | 20000 | 63000 | – |

| Compound | k obs / 1 [1] [M⁻¹ s⁻¹] | k obs / 1 (Calpain 1 (Homo sapiens)) [M⁻¹ s⁻¹] | k obs / 1 [2] [M⁻¹ s⁻¹] | IC50 (Calpain 1) [nM] |
| --- | --- | --- | --- | --- |
| O=C[C@H](Cc1ccccc1)NC(=O)[C@H](Cc1cccc2ccccc12)NC(=O)OCc1ccccc1 (Cbz-[1Nal]-Phe-aldehyde) | – | – | – | > 1000 |
| CC(C)CC(NC(=O)[C@@H](C)NC(=O)OCc1ccccc1)C(=O)NCC(=O)COC(=O)c1c(Cl)ccc(OCCN2CCOCC2)c1Cl (stereo partly specified) | – | < 500 | – | – |
| CC(C)CC(NC(=O)OCc1ccccc1)C(=O)NCC(=O)COC(=O)c1c(Cl)ccc(OCCN2CCOCC2)c1Cl (stereo unspecified) | – | 6000 | – | – |
| CC(NC(=O)OCc1ccccc1)C(=O)NCC(=O)COC(=O)c1c(Cl)cccc1Cl (stereo unspecified) | – | < 500 | – | – |
| CC(C)CC(NC(=O)OCc1ccccc1)C(=O)NCC(=O)COC(=O)c1c(Cl)ccc(S(=O)(=O)N2CCOCC2)c1Cl (stereo unspecified) | 260000 | 23000 | 160000 | – |
| CC(C)C[C@H](NC(=O)OCc1ccccc1)C(=O)N[C@@H](CC(C)C)C(=O)N[C@@H](Cc1ccccc1)C(=O)CCl (Cbz-Leu-Leu-Phe-CH2Cl) | 30000 | 9500 | – | – |
| CCC(C)[C@H](NC(=O)OCc1ccccc1)C(=O)N[C@H](C=O)Cc1ccc(O)cc1 (stereo partly specified) (Cbz-[Ile(3ξ)]-Tyr-aldehyde) | – | – | – | 55 |
| COc1ccc(C[C@@H](C=O)NC(=O)[C@@H](NC(=O)OCc2ccccc2)C(C)C)cc1 (Cbz-Val-Tyr(Me)-aldehyde) | – | – | – | 30 |
| CC(C)(C)C(NC(=O)OCc1ccccc1)C(=O)N[C@H](C=O)Cc1ccccc1 (stereo partly specified) (Cbz-[ξTle]-Phe-aldehyde) | – | – | – | 500 |
| CC(C)C[C@H](NC(=O)CNC(=O)OCc1ccccc1)C(=O)N[C@@H](Cc1ccccc1)C(=O)CCl (Cbz-Gly-Leu-Phe-CH2Cl) | 2700 | 3300 | – | – |
| CC(C)CC(NC(=O)OCc1ccccc1)C(=O)NC(C)C(=O)COC(=O)c1c(Cl)ccc(OCCN2CCOCC2)c1Cl (stereo unspecified) | 58000 | 6000 | – | – |
| CC(C)C(NC(=O)OCc1ccccc1)C(=O)NCC(=O)COC(=O)c1c(Cl)ccc(S(=O)(=O)NCC(=O)OCc2ccccc2)c1Cl (stereo unspecified) | 600000 | 12000 | 120000 | – |
| CC(C)[C@H](NC(=O)OCc1ccccc1)C(=O)N[C@H](C=O)CCc1ccccc1 (Cbz-Val-[hPhe]-aldehyde) | – | – | – | 100 |
| CC(C)CC(NC(=O)[C@@H](C)NC(=O)OCc1ccccc1)C(=O)NC(Cc1ccccc1)C(=O)COC(=O)c1c(Cl)ccc(OCCN2CCOCC2)c1Cl (stereo partly specified) | 400 | 32000 | 28000 | – |
| CC(C)(C)C[C@H](NC(=O)OCc1ccccc1)C(=O)N[C@H](C=O)Cc1ccccc1 (Cbz-[tBuAla]-Phe-aldehyde) | – | – | – | 100 |
| CC(NC(=O)C(Cc1ccccc1)NC(=O)OCc1ccccc1)C(=O)COC(=O)c1c(Cl)ccc(OCCN2CCOCC2)c1Cl (stereo unspecified) | 150000 | < 500 | 180000 | – |
| CC(C)C[C@H](NC(=O)OCc1ccccc1)C(=O)N[C@H](C=O)Cc1ccccc1 (Cbz-Leu-Phe-aldehyde) | – | – | – | 35 |
| O=C(CNC(=O)C(Cc1ccccc1)NC(=O)OCc1ccccc1)COC(=O)c1c(Cl)cccc1Cl (stereo unspecified) | – | < 500 | – | – |
| O=C(N[C@@H](Cc1ccccc1)C(=O)N[C@@H](Cc1ccccc1)C(=O)CCl)OCc1ccccc1 (Cbz-Phe-Phe-CH2Cl) | – | < 500 | – | – |
